Experiment [1] deals with mice in which chronic rheumatoid arthritis was induced. The note with it: oral administration, mice with induced chronic rheumatoid arthritis; cited from earlier work.
Experiment [2] concerns normal rats and spontaneously hypertensive rats (SHR). As to conditions: intravenous acute administration, transient; cited from earlier work.
Experiment [3] deals with normal human umbilical vein endothelial cells (HUVEC). Briefly: Nitrite (NO2) concentration in HUVEC culture supernatant by HPLC (NO production). The class given is cell-based. The note with it: 48-hour culture. On the procedure:
A normal human umbilical vein endothelial cells (HUVEC) line available from Clonetics (SanDiego, Calif., USA) was used with EGM-2 Bullet Kit medium containing 2% FBS (Takara Bio Inc.). The cells were cultured at 37° C. in a 5% CO2 incubator, and used for experiments after 4 to 6 passages. Citrulline and serine, which were manufactured by Kyowa Hakko Bio, were used.
A cell suspension (0.45 mL) with the adjusted initial cell density to 1×10^5 cells/mL was inoculated in a 24-well plate (IWAKI). After 24-hour culture, the medium was replaced with a medium containing L-citrulline (final concentration 0.3 mM: low-dose citrulline group, or final concentration 3 mM: high-dose citrulline group), L-serine (final concentration 0.3 mM: serine group), or a mixture thereof (citrulline final concentration 0.3 mM and serine final concentration 0.3 mM: low-dose citrulline+serine group, or citrulline final concentration 3 mM and serine final concentration 0.3 mM: high-dose citrulline+serine group). In a control group, a medium to which only a solvent (PBS) was added was used. After 48-hour culture, the culture broth ([…]) was centrifuged at 12,000 rpm for 10 minutes, and the concentration of nitrite (NO2), which is a stable NO metabolite, in the culture supernatant was determined by HPLC (ENO-20, EICOM).

Structures are written as SMILES.

`N[C@@H](CO)C(=O)O` [serine, L-serine]: the Arthritis score entry in experiment [1] is listed as “ameliorating the arthritis score”. In addition, in experiment [2], the Average blood pressure entry was “decreased” and the Peripheral vascular resistance result was “decreased in a transient manner”.
For the compound `NC(=O)NCCC[C@H](N)C(=O)O` [citrulline, L-citrulline], the “Effect on NO production alone” value is “does not affect NO production alone” in experiment [3] (citrulline 0.3 mM alone (low-dose citrulline group)) and “NO production was enhanced” in experiment [3] (citrulline 3 mM alone (high-dose citrulline group)).
